The numbers were not newly measured in patent publication US20040180103A1, “Use of plants of the genus hypericum for facilitating the synchronization of a circadian rhythm” (priority 2001, published 2004), which cites them from elsewhere.

This series concerns circadian rhythms in Siberian hamsters. The settings on record: 5 h phase shift under daily administration.

`COc1ccc2[nH]cc(CCNC(C)=O)c2c1` [melatonin]: the “share of animals that adapt to the new light-dark cycle” value is 71%.
